How the values were obtained:
Format in all cases: in vivo
[1] = tested on: Cabbage Looper (Trichoplusia ni, TRIPNI); assay: Bioassay on Cabbage Looper (CL), 128-well diet tray assay; settings: 168 h, 50 μg/cm^2 on artificial diet, second instar larvae, 25° C., five to seven days, average of eight wells, read-out: CL % Control (or Mortality) rating
Method: (§1) Certain molecules disclosed in this document were tested against BAW and CL using procedures described in the following examples. In the reporting of the results, the “BAW & CL Rating Table” was used (See Table Section).
Bioassays on CL were conducted using a 128-well diet tray assay, one to five second instar CL larvae were placed in each well (3 mL) of the diet tray that had been previously filled with 1 mL of artificial diet to which 50 μg/cm^2 of the test molecule (dissolved in 50 μL of 90:10 acetone-water mixture) had been applied (to each of eight wells) and then allowed to dry. Trays were covered with a clear self-adhesive cover, vented to allow gas exchange, and held at 25° C., 14:10 light-dark for five to seven days. Percent mortality was recorded for the larvae in each well; activity in the eight wells was then averaged. The results are indicated in the table entitled “Table ABC: Biological Results” (See Table Section).

[2] = tested on: Beet Armyworm (Spodoptera exigua, LAPHEG); assay: Bioassay on Beet Armyworm (BAW), 128-well diet tray assay; settings: 168 h, 50 μg/cm^2 on artificial diet, second instar larvae, 25° C., five to seven days, average of eight wells, read-out: BAW % Control (or Mortality) rating
Method: as §1
Bioassays on BAW were conducted using a 128-well diet tray assay. One to five second instar BAW larvae were placed in each well (3 mL) of the diet tray that had been previously filled with approximately 1.5 mL of artificial diet to which 50 μg/cm^2 of the test molecule (dissolved in 50 μL of 90:10 acetone-water mixture) had been applied (to each of eight wells) and then allowed to dry. Trays were covered with a clear self-adhesive cover, vented to allow gas exchange, and held at 25° C., 14:10 light-dark for five to seven days. Percent mortality was recorded for the larvae in each well; activity in the eight wells was then averaged. The results are indicated in the table entitled “Table ABC: Biological Results” (See Table Section).

[3] = tested on: Yellow Fever Mosquito (Aedes aegypti, AEDSAE); assay: Bioassay on Yellow Fever Mosquito (YFM) larvae, 96-well plate; settings: about 1 day-old larvae, room temperature, 3 days, scored on mortality
Method: Certain molecules disclosed in this document were tested against YFM using procedures described in the following paragraph. In the reporting of the results, the “GPA & YFM Rating Table” was used (See Table Section).
Master plates containing 400 μg of a molecule dissolved in 100 μL of dimethyl sulfoxide (DMSO) (equivalent to a 4000 ppm solution) are used. A master plate of assembled molecules contains 15 μL per well. To this plate, 135 μL of a 90:10 water/acetone mixture is added to each well. A robot is programmed to dispense 15 μL aspirations from the master plate into an empty 96-well shallow plate (“daughter” plate). There are 6 reps (“daughter” plates) created per master. The created “daughter” plates are then immediately infested with YFM larvae.
The day before plates are to be treated, mosquito eggs are placed in Millipore water containing liver powder to begin hatching (4 g. into 400 mL). After the “daughter” plates are created using the robot, they are infested with 220 μL of the liver powder/larval mosquito mixture (about 1 day-old larvae). After plates are infested with mosquito larvae, a non-evaporative lid is used to cover the plate to reduce drying. Plates are held at room temperature for 3 days prior to grading. After 3 days, each well is observed and scored based on mortality. The results are indicated in the table entitled “Table ABC: Biological Results” (See Table Section).

`O=C(NCC(F)(F)F)c1cc(NC(=O)[C@H]2[C@H](c3ccc(C(F)(F)F)c(Br)c3)C2(Cl)Cl)ccc1Cl` (relative stereo) [F114, 5-(trans-3-(3-Bromo-4-(trifluoromethyl)phenyl)-2,2-dichlorocyclopropane-1-carboxamido)-2-chloro-N-(2,2,2-trifluoroethyl)benzamide] was tested, and the mortality at 50 µg/cm2 [1] was 50 to 100%, the mortality at 50 µg/cm2 [2] was 50 to 100% and the “YFM % Control (or Mortality) rating” value [3] was “A (80-100)”.
For `COc1c(F)cc(C2C(C(=O)Nc3ccc(Cl)c(C(=O)NCC(F)(F)F)c3)C2(Cl)Cl)cc1F` (stereo not drawn) [F125, 2-Chloro-5-trans-(2,2-dichloro-3-(3,5-difluoro-4-methoxyphenyl)cyclopropane-1-carboxamido)-N-(2,2,2-trifluoroethyl)benzamide], the mortality at 50 µg/cm2 [1] was 50 to 100%, the mortality at 50 µg/cm2 [2] was 50 to 100% and the “YFM % Control (or Mortality) rating” value [3] was “A (80-100)”.
For `O=C(NCC(F)(F)F)c1cc(NC(=O)[C@H]2[C@H](c3ccc(Cl)c(Br)c3)C2(Cl)Cl)ccc1Cl` (relative stereo) [F109, 5-(trans-3-(3-Bromo-4-chlorophenyl)-2,2-dichlorocyclopropane-1-carboxamido)-2-chloro-N-(2,2,2-trifluoroethyl)benzamide], the mortality at 50 µg/cm2 [1] was 50 to 100%, the mortality at 50 µg/cm2 [2] was 50 to 100% and the “YFM % Control (or Mortality) rating” value [3] was “A (80-100)”.
`O=C(NCCF)c1cc(NC(=O)[C@H]2[C@H](c3cc(Cl)cc(Cl)c3)C2(Cl)Cl)cc(Cl)c1Cl` (relative stereo) [F92, trans-2,3-Dichloro-5-(2,2-dichloro-3-(3,5-dichlorophenyl)cyclopropane-1-carboxamido)-N-(2-fluoroethyl)benzamide] was tested, and the mortality at 50 µg/cm2 [1] was 50 to 100%, the mortality at 50 µg/cm2 [2] was 50 to 100% and the “YFM % Control (or Mortality) rating” value [3] was “A (80-100)”.
`CCCNC(=O)c1cc(NC(=O)[C@H]2[C@H](c3cc(Cl)cc(Cl)c3)C2(Cl)Cl)c(Cl)cc1Cl` (relative stereo) [F101, trans-2,4-Dichloro-5-(2,2-dichloro-3-(3,5-dichlorophenyl)cyclopropane-1-carboxamido)-N-propylbenzamide] was tested, and the mortality at 50 µg/cm2 [1] was 0%, the mortality at 50 µg/cm2 [2] was 0% and the “YFM % Control (or Mortality) rating” value [3] was “D (No activity noticed in this bioassay)”.
For `O=C(NCC(F)(F)F)c1cc(NC(=O)[C@H]2[C@H](c3ccc(Cl)c(F)c3)C2(Cl)Cl)ccc1Cl` (relative stereo) [F120, 2-Chloro-5-(trans-2,2-dichloro-3-(4-chloro-3-fluorophenyl)cyclopropane-1-carboxamido)-N-(2,2,2-trifluoroethyl)benzamide], the mortality at 50 µg/cm2 [1] was 50 to 100%, the mortality at 50 µg/cm2 [2] was 50 to 100% and the “YFM % Control (or Mortality) rating” value [3] was “A (80-100)”.
With `NS(=O)(=O)CCCNC(=O)c1cc(NC(=O)[C@H]2[C@H](c3cc(Cl)cc(Cl)c3)C2(Cl)Cl)ccc1Cl` (relative stereo) [PF14, trans-2-Chloro-5-(2,2-dichloro-3-(3,5-dichlorophenyl)cyclopropane-1-carboxamido)-N-(3-sulfamoylpropyl)benzamide] the mortality at 50 µg/cm2 [1] was 50 to 100%, the mortality at 50 µg/cm2 [2] was 0 to 50% and the “YFM % Control (or Mortality) rating” value [3] was “D (No activity noticed in this bioassay)”.
In the case of `O=C(NCCC(F)(F)F)c1cc(NC(=O)[C@H]2[C@H](c3cc(Cl)cc(Cl)c3)C2(Cl)Cl)c(Cl)cc1Cl` (relative stereo) [F102, trans-2,4-Dichloro-5-(2,2-dichloro-3-(3,5-dichlorophenyl)cyclopropane-1-carboxamido)-N-(3,3,3-trifluoropropyl)benzamide], the mortality at 50 µg/cm2 [1] is reported as 0%, the mortality at 50 µg/cm2 [2] is reported as 0 to 50% and the “YFM % Control (or Mortality) rating” value [3] is reported as “A (80-100)”.
`O=C(NCC(F)(F)F)c1cc(NC(=O)[C@H]2[C@H](c3cc(Cl)cc(C(F)F)c3)C2(Cl)Cl)ccc1Cl` (relative stereo) [F128, 2-Chloro-5-(trans-2,2-dichloro-3-(3-chloro-5-(difluoromethyl)phenyl)cyclopropane-1-carboxamido)-N-(2,2,2-trifluoroethyl)benzamide] was tested, and the mortality at 50 µg/cm2 [1] was 50 to 100%, the mortality at 50 µg/cm2 [2] was 50 to 100% and the “YFM % Control (or Mortality) rating” value [3] was “A (80-100)”.
For `O=C(NCCC(F)(F)C(F)(F)F)c1cc(NC(=O)[C@H]2[C@H](c3cc(Cl)cc(Cl)c3)C2(Cl)Cl)ccc1Cl` (relative stereo) [F60, trans-2-Chloro-5-(2,2-dichloro-3-(3,5-dichlorophenyl)cyclopropane-1-carboxamido)-N-(3,3,4,4,4-pentafluorobutyl)benzamide], the mortality at 50 µg/cm2 [1] was 50 to 100%, the mortality at 50 µg/cm2 [2] was 50 to 100% and the “YFM % Control (or Mortality) rating” value [3] was “D (No activity noticed in this bioassay)”.
`O=C(NCC(F)(F)F)c1cc(NC(=O)[C@H]2[C@H](c3ccc(F)c(Br)c3)C2(Cl)Cl)ccc1Cl` (relative stereo) [F118, 5-(trans-3-(3-Bromo-4-fluorophenyl)-2,2-dichlorocyclopropane-1-carboxamido)-2-chloro-N-(2,2,2-trifluoroethyl)benzamide] was tested, and the mortality at 50 µg/cm2 [1] was 50 to 100%, the mortality at 50 µg/cm2 [2] was 50 to 100% and the “YFM % Control (or Mortality) rating” value [3] was “A (80-100)”.
`COCCN(C)C(=O)c1cc(NC(=O)[C@H]2[C@H](c3cc(Cl)cc(Cl)c3)C2(Cl)Cl)ccc1Cl` (relative stereo) [F67, trans-2-Chloro-5-(2,2-dichloro-3-(3,5-dichlorophenyl)cyclopropane-1-carboxamido)-N-(2-methoxyethyl)-N-methylbenzamide] was tested, and the mortality at 50 µg/cm2 [1] was 50 to 100%, the mortality at 50 µg/cm2 [2] was 50 to 100% and the “YFM % Control (or Mortality) rating” value [3] was “D (No activity noticed in this bioassay)”.
With `O=C(NCC(F)(F)F)c1cc(NC(=O)[C@H]2[C@H](c3cc(Cl)cc(Cl)c3)C2(Br)Br)ccc1Cl` (relative stereo) [PF1, trans-2-Chloro-5-(2,2-dibromo-3-(3,5-dichlorophenyl)cyclopropane-1-carboxamido)-N-(2,2,2-trifluoroethyl)benzamide] the mortality at 50 µg/cm2 [1] was 50 to 100%, the mortality at 50 µg/cm2 [2] was 50 to 100% and the “YFM % Control (or Mortality) rating” value [3] was “D (No activity noticed in this bioassay)”.
With `COc1c(Cl)cc([C@H]2[C@H](C(=O)Nc3ccc(Cl)c(C(=O)NCC(F)(F)F)c3)C2(Cl)Cl)cc1Cl` (relative stereo) [F87, trans-2-Chloro-5-(2,2-dichloro-3-(3,5-dichloro-4-methoxyphenyl)cyclopropane-1-carboxamido)-N-(2,2,2-trifluoroethyl)benzamide] the mortality at 50 µg/cm2 [1] was 50 to 100%, the mortality at 50 µg/cm2 [2] was 50 to 100% and the “YFM % Control (or Mortality) rating” value [3] was “B (More than 0-Less than 80)”.
With `O=C(NCCSCc1ccco1)c1cc(NC(=O)[C@H]2[C@H](c3cc(Cl)cc(Cl)c3)C2(Cl)Cl)ccc1Cl` (relative stereo) [PF9, trans-2-Chloro-5-(2,2-dichloro-3-(3,5-dichlorophenyl)cyclopropane-1-carboxamido)-N-(2-((furan-2-ylmethyl)thio)ethyl)benzamide] the mortality at 50 µg/cm2 [1] was 50 to 100%, the mortality at 50 µg/cm2 [2] was 50 to 100% and the “YFM % Control (or Mortality) rating” value [3] was “A (80-100)”.
With `CCOCCNC(=O)c1cc(NC(=O)[C@H]2[C@H](c3cc(Cl)cc(Cl)c3)C2(Cl)Cl)ccc1Cl` (relative stereo) [F54, trans-2-Chloro-5-(2,2-dichloro-3-(3,5-dichlorophenyl)cyclopropane-1-carboxamido)-N-(2-ethoxyethyl)benzamide] the mortality at 50 µg/cm2 [1] was 50 to 100%, the mortality at 50 µg/cm2 [2] was 50 to 100% and the “YFM % Control (or Mortality) rating” value [3] was “B (More than 0-Less than 80)”.
With `CSCCNC(=O)c1cc(NC(=O)[C@H]2[C@H](c3cc(Cl)cc(Cl)c3)C2(Cl)Cl)ccc1Cl` (relative stereo) [F52, trans-2-Chloro-5-(2,2-dichloro-3-(3,5-dichlorophenyl)cyclopropane-1-carboxamido)-N-(2-(methylthio)ethyl)benzamide] the mortality at 50 µg/cm2 [1] was 50 to 100%, the mortality at 50 µg/cm2 [2] was 50 to 100% and the “YFM % Control (or Mortality) rating” value [3] was “B (More than 0-Less than 80)”.
With `O=C(NCC(F)(F)F)c1cc(NC(=O)[C@H]2[C@H](c3ccc(F)c(C(F)(F)F)c3)C2(Cl)Cl)ccc1Cl` (relative stereo) [F119, 2-Chloro-5-(trans-2,2-dichloro-3-(4-fluoro-3-(trifluoromethyl)phenyl)cyclopropane-1-carboxamido)-N-(2,2,2-trifluoroethyl)benzamide] the mortality at 50 µg/cm2 [1] was 50 to 100%, the mortality at 50 µg/cm2 [2] was 50 to 100% and the “YFM % Control (or Mortality) rating” value [3] was “A (80-100)”.

From patent US9795140B2, “Molecules having pesticidal utility, and intermediates, compositions, and processes, related thereto” (priority 2015, dated 2017)
